Calls of active or inactive are those of the source. The calls are words filed in the database; no cut-off is given here. Bounds are passed on as bounds.

One series concerns RS4-11. In words: Cytotoxicity against human RS4-11 cells assessed as reduction in cell viability measured after 3 days by CellTiter-Glo assay. The class given is functional, cell-based. As to conditions: RS4-11, 72 h. (In general: Cellular ATP, detected with luciferase, serves as a proxy for viable cell number.)
A further series relates to IMR-90. The series is described as follows: Cytotoxicity against human IMR-90 cells assessed as effect on cell viability at 10^-10 to 10^-5 M measured after 3 days by CellTiter-Glo assay. To be noted: imr-90, 72 h, dose 0.0001-10 µM, time 3 day. The class given is cell-based.
The subject of another series is HaCaT. In words: Cytotoxicity against human HaCaT cells assessed as effect on cell viability at 10^-10 to 10^-5 M measured after 3 days by CellTiter-Glo assay. To be noted: 72 h, dose 0.0001-10 µM, time 3 day. It is filed as cell-based.
Series [1] concerns the target Protein cereblon/Tyrosine-protein kinase JAK1 (Homo sapiens, UniProt P23458+Q96SW2). In words: Protac activity at CRBN/JAK1 in human RS4-11 cells assessed as degradation of JAK1 measured after 24 hrs by immunoblotting analysis. The class given is cell-based.
The test system of series [2] is Protein cereblon/Tyrosine-protein kinase JAK2 (Homo sapiens), O60674+Q96SW2 [UNDEFINED MUTATION]. The series is described as follows: Protac activity at CRBN/JAK2 V617 mutant in human HEL cells assessed as decrease in JAK2 V617 mutant protein level at < 60 nM measured after 24 hrs by immunoblotting analysis. The class given is cell-based. As to conditions: dose nM <60, time 24.0 hrs. (In general: A western blot detects proteins with antibodies after separation by electrophoresis.)
Sequence of Protein cereblon/Tyrosine-protein kinase JAK2 (Homo sapiens), O60674+Q96SW2 [UNDEFINED MUTATION] (O60674 whole entry, looked up, stated change not applied): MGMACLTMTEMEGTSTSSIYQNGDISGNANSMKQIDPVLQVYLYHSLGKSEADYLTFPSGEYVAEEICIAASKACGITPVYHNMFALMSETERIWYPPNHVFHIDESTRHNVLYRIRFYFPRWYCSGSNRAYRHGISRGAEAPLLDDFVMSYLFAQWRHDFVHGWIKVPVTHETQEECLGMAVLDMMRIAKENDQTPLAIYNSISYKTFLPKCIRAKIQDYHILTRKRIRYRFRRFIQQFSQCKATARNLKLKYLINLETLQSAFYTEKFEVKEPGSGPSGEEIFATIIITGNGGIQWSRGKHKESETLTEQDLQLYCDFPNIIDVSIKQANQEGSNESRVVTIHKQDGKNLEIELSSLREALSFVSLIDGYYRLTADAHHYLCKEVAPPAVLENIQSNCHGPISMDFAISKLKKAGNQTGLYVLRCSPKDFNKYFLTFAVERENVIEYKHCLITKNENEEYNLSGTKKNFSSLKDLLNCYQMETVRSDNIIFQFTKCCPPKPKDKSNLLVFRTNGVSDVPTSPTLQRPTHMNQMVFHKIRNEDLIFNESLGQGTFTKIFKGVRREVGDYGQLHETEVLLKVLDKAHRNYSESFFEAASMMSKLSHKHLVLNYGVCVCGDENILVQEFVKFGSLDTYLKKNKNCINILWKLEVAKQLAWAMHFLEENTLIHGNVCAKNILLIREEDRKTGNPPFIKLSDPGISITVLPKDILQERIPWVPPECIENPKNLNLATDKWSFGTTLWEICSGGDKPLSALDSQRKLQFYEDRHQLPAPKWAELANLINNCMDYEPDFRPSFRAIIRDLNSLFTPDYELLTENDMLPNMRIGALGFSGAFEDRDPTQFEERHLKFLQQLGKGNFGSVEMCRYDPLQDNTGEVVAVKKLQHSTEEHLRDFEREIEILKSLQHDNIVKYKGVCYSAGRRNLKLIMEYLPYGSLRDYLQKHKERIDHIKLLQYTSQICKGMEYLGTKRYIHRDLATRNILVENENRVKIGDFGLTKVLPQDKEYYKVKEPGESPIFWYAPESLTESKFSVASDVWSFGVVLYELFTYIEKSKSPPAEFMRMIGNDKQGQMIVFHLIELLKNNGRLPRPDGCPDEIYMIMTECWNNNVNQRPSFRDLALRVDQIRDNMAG
Sequence of Protein cereblon/Tyrosine-protein kinase JAK2 (Homo sapiens), O60674+Q96SW2 [UNDEFINED MUTATION] (Q96SW2 whole entry, looked up, stated change not applied): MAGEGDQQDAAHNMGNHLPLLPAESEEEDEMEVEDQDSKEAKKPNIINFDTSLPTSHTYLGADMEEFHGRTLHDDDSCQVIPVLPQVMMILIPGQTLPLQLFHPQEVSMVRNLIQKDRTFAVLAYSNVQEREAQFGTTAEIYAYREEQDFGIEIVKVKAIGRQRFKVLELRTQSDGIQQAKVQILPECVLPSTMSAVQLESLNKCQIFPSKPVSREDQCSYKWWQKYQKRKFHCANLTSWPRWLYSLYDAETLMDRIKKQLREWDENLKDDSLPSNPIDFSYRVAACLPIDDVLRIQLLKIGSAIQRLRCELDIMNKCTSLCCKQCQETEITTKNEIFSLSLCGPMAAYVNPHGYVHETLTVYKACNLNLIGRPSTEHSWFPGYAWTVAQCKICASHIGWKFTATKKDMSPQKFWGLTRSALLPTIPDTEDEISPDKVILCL

Sequence of Protein cereblon/Tyrosine-protein kinase JAK1 (P23458 whole entry): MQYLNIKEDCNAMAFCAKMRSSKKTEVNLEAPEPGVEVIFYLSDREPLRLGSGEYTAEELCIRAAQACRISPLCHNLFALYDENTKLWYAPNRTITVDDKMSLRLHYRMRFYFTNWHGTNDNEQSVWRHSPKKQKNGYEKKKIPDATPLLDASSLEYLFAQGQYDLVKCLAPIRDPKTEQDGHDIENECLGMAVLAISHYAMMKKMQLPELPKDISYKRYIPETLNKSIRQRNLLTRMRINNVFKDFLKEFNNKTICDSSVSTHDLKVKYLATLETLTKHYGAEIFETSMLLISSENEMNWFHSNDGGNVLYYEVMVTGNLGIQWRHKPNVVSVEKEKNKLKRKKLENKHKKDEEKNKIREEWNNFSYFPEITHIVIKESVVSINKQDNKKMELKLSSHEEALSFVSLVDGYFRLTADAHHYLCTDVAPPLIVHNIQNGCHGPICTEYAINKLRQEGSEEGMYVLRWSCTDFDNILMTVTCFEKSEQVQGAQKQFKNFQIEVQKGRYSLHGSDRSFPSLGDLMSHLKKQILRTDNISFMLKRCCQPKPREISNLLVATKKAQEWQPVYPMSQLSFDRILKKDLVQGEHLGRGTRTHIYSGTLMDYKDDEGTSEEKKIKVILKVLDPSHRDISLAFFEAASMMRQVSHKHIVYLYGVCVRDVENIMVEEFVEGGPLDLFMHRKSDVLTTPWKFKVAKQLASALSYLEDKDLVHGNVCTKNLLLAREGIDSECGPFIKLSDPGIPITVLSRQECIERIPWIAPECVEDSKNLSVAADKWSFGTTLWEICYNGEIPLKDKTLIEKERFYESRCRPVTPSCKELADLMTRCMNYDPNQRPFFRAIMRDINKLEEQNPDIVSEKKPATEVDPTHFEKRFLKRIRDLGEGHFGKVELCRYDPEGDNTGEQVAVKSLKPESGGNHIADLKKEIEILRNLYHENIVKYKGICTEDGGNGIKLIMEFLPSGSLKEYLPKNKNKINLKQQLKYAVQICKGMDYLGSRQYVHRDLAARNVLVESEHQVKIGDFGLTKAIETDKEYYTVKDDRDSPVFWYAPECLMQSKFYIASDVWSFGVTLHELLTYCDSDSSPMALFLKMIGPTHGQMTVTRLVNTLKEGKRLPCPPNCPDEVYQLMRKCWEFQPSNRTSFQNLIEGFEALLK
Sequence of Protein cereblon/Tyrosine-protein kinase JAK1 (Q96SW2 whole entry): as the sequence (Q96SW2 whole entry, looked up, stated change not applied) above

In general, IC50 refers to the concentration that inhibits the measured activity by half. `CS(=O)(=O)c1ccc(-c2cccc3nc(Nc4ccc(N5CCN(CC(=O)NCCCCCCCNc6ccc7c(c6)C(=O)N(C6CCC(=O)NC6=O)C7=O)CC5)cc4)nn23)cc1` (configuration not stated): in the series on RS4-11, the IC50 turned out to be 63.5 nM.
The DC50 is the midpoint of the concentration-degradation curve. As for `O=C1CCC(N2C(=O)c3ccc(NCCCCCC(=O)N4CCC(n5cc(-c6cnc7cccc(-c8cc(F)c(CN9CCOCC9)c(F)c8)c7n6)cn5)CC4)cc3C2=O)C(=O)N1` (configuration not stated), the IC50 with RS4-11 is 2.03 nM. Also, the Activity result with IMR-90 and with HaCaT was “Non-Toxic” each time. For the same molecule, the half-maximal degradation concentration (DC50) in series [1] was < 5 nM.
Regarding `CS(=O)(=O)c1ccc(-c2cccc3nc(Nc4ccc(N5CCN(C(=O)CCCCCCOc6ccc7c(c6)C(=O)N(C6CCC(=O)NC6=O)C7)CC5)cc4)nn23)cc1` (configuration not stated), the 50% inhibitory concentration (IC50) in the series on RS4-11 is 5.4 nM.
Same read-out and setting: with `O=C1CCC(N2C(=O)c3ccc(NCCCCCCCC(=O)N4CCC(n5cc(-c6cnc7cccc(-c8cc(F)c(CN9CCOCC9)c(F)c8)c7n6)cn5)CC4)cc3C2=O)C(=O)N1` (configuration not stated) the figure was 54.4 nM; with `O=C1CCC(N2C(=O)c3ccc(NCCCCC(=O)N4CCC(n5cc(-c6cnc7cccc(-c8cc(F)c(CN9CCOCC9)c(F)c8)c7n6)cn5)CC4)cc3C2=O)C(=O)N1` (configuration not stated), 13.8 nM.
On the same count and under the same terms, the same measure for `O=C1CCC(N2Cc3cc(OCCCCCC(=O)N4CCC(n5cc(-c6cnc7cccc(-c8cc(F)c(CN9CCOCC9)c(F)c8)c7n6)cn5)CC4)ccc3C2=O)C(=O)N1` (configuration not stated): 3.6 nM.
Consider `CS(=O)(=O)c1ccc(-c2cccc3nc(Nc4ccc(N5CCN(CC(=O)NCCCCCCCCNc6ccc7c(c6)C(=O)N(C6CCC(=O)NC6=O)C7=O)CC5)cc4)nn23)cc1` (configuration not stated), for which, in the series on RS4-11, the IC50 was determined as 8.45 nM. The outcome in series [2] was Active. Moreover, the Activity result with IMR-90 and in the series on HaCaT was “Non-Toxic” throughout. Further, the 50% degradation concentration (DC50) in series [1] was < 35 nM.
For `CS(=O)(=O)c1ccc(-c2cccc3nc(Nc4ccc(N5CCN(C(=O)CCCCCOc6ccc7c(c6)CN(C6CCC(=O)NC6=O)C7=O)CC5)cc4)nn23)cc1` (configuration not stated), in the series on RS4-11, the IC50 was determined as 32.8 nM.
The same measure, in the same setting: the same measure for `CS(=O)(=O)c1ccc(-c2cccc3nc(Nc4ccc(N5CCN(C(=O)CCCCCNc6ccc7c(c6)C(=O)N(C6CCC(=O)NC6=O)C7=O)CC5)cc4)nn23)cc1` (configuration not stated): 7.3 nM; for `O=C1CCC(N2Cc3ccc(OCCCCCCC(=O)N4CCC(n5cc(-c6cnc7cccc(-c8cc(F)c(CN9CCOCC9)c(F)c8)c7n6)cn5)CC4)cc3C2=O)C(=O)N1` (configuration not stated): 3.8 nM.

These data come from ChEMBL document CHEMBL4680361, “Degradation of Janus Kinase for Potential Application in Immune Response Therapeutics” (ACS Med Chem Lett, 2021).
